In patent EP0929544B1, “TRICYCLIC ANTITUMOR COMPOUNDS BEING FARNESYL PROTEIN TRANSFERASE INHIBITORS” (SCHERING CORPORATION, priority 1996, dated 1998):
Like-named read-outs stand apart in the source and are kept apart here. Each block holds one compound with its values, some of them ahead of it.

Columns and labels:
[1] = target: T1, Farnesyl protein transferase (FPT) (Rattus norvegicus, UniProt Q02293+Q04631); assay: In vitro enzyme assay: inhibition of farnesyl protein transferase (transfer of [3H]farnesyl from [3H]farnesyl pyrophosphate to Ras-CVLS); format: biochemical
T1 construct: Farnesyl protein transferase (FPT) was partially purified from rat brain; from tissue; host or cells: rat brain
Text: 1. In vitro enzyme assays: Inhibition of farnesyl protein transferase and geranylgeranyl protein transferase.
Farnesyl protein transferase (FPT) was partially purified from rat brain by ammonium sulfate fractionation followed by Q-Sepharose (Pharmacia, Inc.) anion exchange chromatography essentially as described by Yokoyama et al (Yokoyama, K., et al., (1991), A protein geranylgeranyltransferase from bovine brain: Implications for protein prenylation specificity, Proc. Natl. Acad. Sci USA 88: 5302-5306, the disclosure of which is incorporated herein by reference thereto). Human famesyl protein transferase was also expressed in E. coli, using cDNA clones encoding both the a and b subunits. The methods used were similar to those published (Omer, C. et al., (1993), Characterization of recombinant human farnesyl protein transferase: Cloning, expression, famesyl diphosphate binding, and functional homology with yeast prenyl-protein transferases, Biochemistry 32:5167-5176). Human famesyl protein transferase was partially-purified from the soluble protein fraction of E. coli as described above. […] Two forms of val^12-Ha-Ras protein were prepared as substrates for these enzymes, differing in their carboxy terminal sequence. One form terminated in cysteine-valine-leucine-serine (Ras-CVLS) the other in cystein-valine-leucine-leucine (Ras-CVLL). Ras-CVLS is a substrate for the famesyl protein transferase while Ras-CVLL is a substrate for geranylgeranyl protein transferase I. The cDNAs encoding these proteins were constructed so that the proteins contain an amino-terminal extension of 6 histidine residues. Both proteins were expressed in Escherichia coli and purified using metal chelate affinity chromatography. The radiolabelled isoprenyl pyrophosphate substrates, [^3H]farnesyl pyrophosphate and [^3H]geranylgeranyl pyrophosphate, were purchased from DuPont/New England Nuclear.
Several methods for measuring famesyl protein transferase activity have been described (Reiss et al 1990, Cell 62: 81; Schaber et al 1990, J. Biol. Chem. 265: 14701; Manne et al 1990, PNAS 87: 7541; and Barbacid & Manne 1993, U.S. Patent No. 5,185,248). […] The reaction was allowed to proceed for 30 minutes at room temperature and then stopped with 0.5 ml of 4% sodium dodecyl sulfate (SDS) followed by 0.5 ml of cold 30% TCA. Samples were allowed to sit on ice for 45 minutes and precipitated Ras protein was then collected on GF/C filter paper mats using a Brandel cell harvester. Filter mats were washed once with 6% TCA, 2% SDS and radioactivity was measured in a Wallac 1204 Betaplate BS liquid scintillation counter. Percent inhibition was calculated relative to the DMSO vehicle control.

[2] = tested on: Ras processing in COS monkey kidney cells; assay: Cell-based assay: transient expression of val12-Ha-Ras-CVLS in COS cells, effect on Ras processing (immunoblot); details: Primates, read-out: INHIBITION OF RAS PROCESSING IC50
Text: 2. Cell-Based Assay: Transient expression of val^12-Ha-Ras-CVLS and val^12-Ha-Ras-CVLL in COS monkey kidney cells: Effect of famesyl protein transferase inhibitors on Ras processing and on disordered cell growth induced by transforming Ras.
COS monkey kidney cells were transfected by electroporation with the plasmid pSV-SPORT (Gibco/BRL) containing a cDNA insert encoding either Ras-CVLS or Ras-CVLL, leading to transient overexpression of a Ras substrate for either famesyl protein transferase or geranylgeranyl protein transferase I, respectively (see above).
Following electroporation, cells were plated into 6-well tissue culture dishes containing 1.5 ml of Dulbecco's-modified Eagle's media (GIBCO, Inc.) supplemented with 10% fetal calf serum and the appropriate famesyl protein transferase inhibitors. After 24 hours, media was removed and fresh media containing the appropriate drugs was re-added.
48 hours after electroporation cells were examined under the microscope to monitor disordered cell growth induced by transforming Ras. Cells expressing transforming Ras become more rounded and refractile and overgrow the monolayer, reminiscent of the transformed phenotype. Cells were then photographed, washed twice with 1 ml of cold phosphate-buffered saline (PBS) and removed from the dish by scraping with a rubber policeman into 1 ml of a buffer containing 25 mM Tris, pH 8.0; 1 mM ethylenediamine tetraacetic acid; 1 mM phenylmethylsulfonyl fluoride; […]; and 0.1 mM pepstatin. Cells were lysed by homogenization and cell debris was removed by centrifugation at 2000 × g for 10 min.
Cellular protein was precipitated by addition of ice-cold trichloroacetic acid and redissolved in […] of SDS-electrophoresis sample buffer. Samples ([…]) were loaded onto 14% polyacrylamide minigels (Novex, Inc.) and electrophoresed until the tracking dye neared the bottom of the gel. Proteins resolved on the gels were electroblotted onto nitrocellulose membranes for immunodetection.
Membranes were blocked by incubation overnight at 4°C in PBS containing 2.5% dried milk and 0.5% Tween-20 and then incubated with a Ras-specific monoclonal antibody, Y13-259 (Furth, M.E., et al., (1982), Monoclonal antibodies to the p21 products of the transforming gene of Harvey murine sarcome virus and of the cellular ras gene family, J. Virol. 43: 294-304), in PBS containing 1% fetal calf serum for one hour at room temperature. After washing, membranes were incubated for one hour at room temperature with a 1:5000 dilution of secondary antibody, rabbit anti-rat IgG conjugated to horseradish peroxidase, in PBS containing 1% fetal calf serum. The presence of processed and unprocessed Ras-CVLS or Ras-CVLL was detected using a colorimetric peroxidase reagent (4-chloro-1-naphthol) as described by the manufacturer (Bio-Rad).

[3] = FPT INHIBITION; read-out: FPT IC50
[4] = read-out: FPT IC50; FPT INHIBITION

T1 sequence (Q02293 whole entry, one chain of several): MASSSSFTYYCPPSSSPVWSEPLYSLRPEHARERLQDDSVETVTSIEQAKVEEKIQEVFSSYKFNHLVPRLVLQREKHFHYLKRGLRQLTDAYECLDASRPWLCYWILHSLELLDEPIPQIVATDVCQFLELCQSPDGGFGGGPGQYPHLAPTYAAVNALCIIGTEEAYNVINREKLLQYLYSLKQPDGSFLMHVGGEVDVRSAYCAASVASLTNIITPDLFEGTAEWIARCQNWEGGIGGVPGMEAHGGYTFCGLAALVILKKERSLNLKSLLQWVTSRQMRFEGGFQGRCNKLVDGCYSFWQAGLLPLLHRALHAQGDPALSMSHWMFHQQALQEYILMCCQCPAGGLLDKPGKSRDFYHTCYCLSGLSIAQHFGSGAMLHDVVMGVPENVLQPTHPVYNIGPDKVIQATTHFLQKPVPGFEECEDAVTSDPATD

Structure (SMILES): O=C(CN1CCCC1=O)N1CCC(C2c3ncc(Br)cc3CCc3cc(Cl)cc(Cl)c32)CC1 (single isomer, unassigned) [Example 10]
- IC50 [1, 3]: 19 nM
- IC50 ([2]; ACTIVITY IN COS CELLS): 500 nM

Structure (SMILES): O=C(CCC(=O)N1CCC(C2c3ncc(Br)cc3CCc3cc(Cl)cc(Cl)c32)CC1)N1CCCC1 (single isomer, unassigned) [Example 14]
- IC50 [1, 3]: 16 nM
- IC50 ([2]; ACTIVITY IN COS CELLS): 250 nM

Structure (SMILES): O=C(NCCCC(=O)N1CCC(C2c3ncc(Br)cc3CCc3cc(Cl)cc(Cl)c32)CC1)c1cccnc1 (single isomer, unassigned) [Example 18]
- inhibition at 0.093 µM ([1]; @ 93 nM; read-out: FPT inhibition (percent inhibition)): 9%
- IC50 ([2]; ACTIVITY IN COS CELLS): 540 nM

Structure (SMILES): CN(C)CCCC(=O)N1CCC(C2c3ncc(Br)cc3CCc3cc(Cl)cc(Br)c32)CC1 (single isomer, unassigned; (+)) [Example 2, (+)-4-(3,10-DIBROMO-8-CHLORO-6,11-DIHYDRO-5H-BENZO[5,6]CYCLO-HEPTA[1,2-b]PYRIDIN-11-YL)-1-[4-(DIMETHYLAMINO)-1-OXOBUTYL]PIPERIDINE]
- IC50 [1, 3]: 4 nM
- IC50 ([2]; ACTIVITY IN COS CELLS): 13 nM

Structure (SMILES): O=C(O)CCC(=O)N1CCC([C@H]2c3ncc(Br)cc3CCc3cc(Cl)cc(Br)c32)CC1 [Example 49, (+)-SODIUM 4-(3,10-DIBROMO-8-CHLORO-6,11-DIHYDRO-5H-BENZO[5,6]CYCLO-HEPTA[1,2-b]PYRIDIN-11(R)-YL)-GAMMA-OXO-1-PI[…]]
- IC50 [1, 4]: 270 nM

Structure (SMILES): O=C(O)CCCC(=O)N1CCC([C@H]2c3ncc(Br)cc3CCc3cc(Cl)cc(Br)c32)CC1 [Example 52, (+)-SODIUM 4-(3,10-DIBROMO-8-CHLORO-6,11-DIHYDRO-5H-BENZO[5,6]CYCLO-HEPTA[1,2-b]PYRIDlN-11(R)-YL)-DELTA-OXO-1-PI[…]]
- IC50 [1, 4]: 44 nM

Structure (SMILES): O=C(O)CCCCC(=O)N1CCC([C@H]2c3ncc(Br)cc3CCc3cc(Cl)cc(Br)c32)CC1 [Example 55, (+)-SODIUM 4-(3,10-DIBROMO-8-CHLORO-6,11-DIHYDRO-5H-BENZO[5,6]CYCLO-HEPTA[1,2-b]PYRIDIN-11(R)-YL)-EPSILON-OXO-1-PI[…]]
- IC50 [1, 4]: 17 nM

Structure (SMILES): O=C(O)CCCCCC(=O)N1CCC([C@H]2c3ncc(Br)cc3CCc3cc(Cl)cc(Br)c32)CC1 [Example 58, (+)-SODIUM 4-(3,10-DIBROMO-8-CHLORO-6,11-DIHYDRO-5H-BENZO[5,6]CYCLO-HEPTA[1,2-b]PYRIDIN-11(R)-YL)-OMEGA-OXO -1-PIPERIDININE HEPTANOATE]
- IC50 [1, 3]: 9.1 nM
- IC50 ([2]; COS): 300 nM

Further lines, with some results ahead:

- IC50 [1, 3]: 15 nM
Structure (SMILES): CN(C)C(=O)CCC(=O)N1CCC(C2c3ncc(Br)cc3CCc3cc(Cl)cc(Cl)c32)CC1 (single isomer, unassigned) [Example 13]
- IC50 ([2]; ACTIVITY IN COS CELLS): 200 nM

- IC50 [1, 3]: 14 nM
Structure (SMILES): NC(=O)CCC(=O)N1CCC([C@H]2c3ncc(Br)cc3CCc3cc(Cl)cc(Br)c32)CC1 [Example 50, (+)-4-(3,10-DIBROMO-8-CHLORO-6,11-DIHYDRO-5H-BENZO[5,6]CYCLO-HEPTA[1,2-b]PYRIDIN-11(R)-YL)-GAMMA-OXO-1-PIPERIDININE BUTANAMIDE]

- IC50 [1, 3]: 19 nM
Structure (SMILES): COC(=O)CCCC(=O)N1CCC([C@H]2c3ncc(Br)cc3CCc3cc(Cl)cc(Br)c32)CC1 [Example 51, (+)-METHYL 4-(3,10-DIBROMO-8-CHLORO-6,11-DIHYDRO-5H-BENZO[5,6]CYCLO-HEPTA[1,2-b]PYRIDIN-11(R)-YL)-DELTA-OXO-1-PIPERIDININE PENTANOATE]

- IC50 [1, 3]: 10 nM
Structure (SMILES): NC(=O)CCCC(=O)N1CCC([C@H]2c3ncc(Br)cc3CCc3cc(Cl)cc(Br)c32)CC1 [Example 53, (+)-4-(3,10-DIBROMO-8-CHLORO-6,11-DIHYDRO-5H-BENZO[5,6]CYCLO-HEPTA[1,2-b]PYRIDIN-11(R)-YL)-DELTA-OXO-1-PIPERIDININE PENTANAMIDE]

- IC50 [1, 3]: 15 nM
Structure (SMILES): COC(=O)CCCCC(=O)N1CCC([C@H]2c3ncc(Br)cc3CCc3cc(Cl)cc(Br)c32)CC1 [Example 54, (+)-METHYL 4-(3,10-DIBROMO-8-CHLORO-6,11-DIHYDRO-5H-BENZO[5,6]CYCLO-HEPTA[1,2-b]PYRIDIN-11(R)-YL)-EPSILON-OXO -1-PIPERIDININE HEXANOATE]

- IC50 [1, 3]: 7 nM
Structure (SMILES): NC(=O)CCCCC(=O)N1CCC([C@H]2c3ncc(Br)cc3CCc3cc(Cl)cc(Br)c32)CC1 [Example 56, (+)-4-(3,10-DIBROMO-8-CHLORO-6,11-DIHYDRO-5H-BENZO[5,6]CYCLO-HEPTA[1,2-b]PYRIDIN-11(R)-YL)-EPSILON-OXO-1-PIPERIDININE HEXANAMIDE]

- IC50 [1, 3]: 11 nM
Structure (SMILES): COC(=O)CCCCCC(=O)N1CCC([C@H]2c3ncc(Br)cc3CCc3cc(Cl)cc(Br)c32)CC1 [Example 57, (+)-METHYL 4-(3,10-DIBROMO-8-CHLORO-6,11-DIHYDRO-5H-BENZO[5,6]CYCLO-HEPTA[1,2-b]PYRIDIN-11(R)-YL)-OMEGA-OXO-1-PIPERIDININE HEPTANOATE]

- IC50 [1, 3]: 3.3 nM
Structure (SMILES): NC(=O)CCCCCC(=O)N1CCC([C@H]2c3ncc(Br)cc3CCc3cc(Cl)cc(Br)c32)CC1 [Example 59, (+)-4-(3,10-DIBROMO-8-CHLORO-6,11-DIHYDRO-5H-BENZO[5,6]CYCLO-HEPTA[1,2-b]PYRIDIN-11(R)-YL)-OMEGA-OXO-1-PIPERIDININE HEPTANAMIDE]
